Counter-ions that a name gives are not always drawn.

The target of the test is T1, α-1A adrenoceptor (dog prostate).
T1 construct: from tissue; host or cells: canine prostate strips
T1 sequence (P35348 whole entry): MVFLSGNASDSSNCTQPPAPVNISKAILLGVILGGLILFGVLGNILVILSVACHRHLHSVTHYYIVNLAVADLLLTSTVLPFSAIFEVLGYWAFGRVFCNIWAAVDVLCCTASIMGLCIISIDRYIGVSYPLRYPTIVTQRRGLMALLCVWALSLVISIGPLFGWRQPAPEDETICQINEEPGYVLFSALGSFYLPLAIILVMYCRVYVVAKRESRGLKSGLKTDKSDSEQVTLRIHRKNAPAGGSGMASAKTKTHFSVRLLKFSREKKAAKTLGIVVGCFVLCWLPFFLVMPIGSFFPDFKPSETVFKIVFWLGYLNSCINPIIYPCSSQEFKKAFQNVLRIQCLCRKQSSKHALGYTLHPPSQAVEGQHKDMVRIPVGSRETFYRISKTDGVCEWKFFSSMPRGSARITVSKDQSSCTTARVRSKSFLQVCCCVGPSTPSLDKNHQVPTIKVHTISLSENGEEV
The test is described as follows: Functional antagonism of phenylephrine-induced contraction of canine prostate strips. The test is classed as cell-based, dog (canine). To be noted: vs phenylephrine-induced contraction, Schild plot; read-out: pA2 Dog Prostate [α-1A] (converted). From the text:
Canine prostate strips were used in vitro as previously described (Hieble, J. P., Boyce, A. J. and Caine, M., Fed. Proc., 45: 2609-2614 (1986)), to determine antagonist potencies against phenylephrine-induced contractions.
Functional assays indicative of pharmacologically defined α-1 adrenoceptors were used to further characterize compounds. Inhibition of phenylephrine (PE)-induced contraction of canine prostate smooth muscle can be correlated with α-1A adrenoceptor activation. […] For each of these models, agonist dose response curves were repeated against increasing concentrations of test agent to derive a Schild plot [log ([…]) against log (molarity of test agent)] to determine the pA2.
Turning to `COc1cccc2c1CC[C@H]1CN(CCn3c(=O)[nH]c4scc(C)c4c3=O)C[C@@H]21` (relative stereo) [Example 4, hydrochloride], the Kb was 12.3 nM. As for `COc1cccc2c1CC[C@H]1CN(CCn3c(=O)[nH]c4scc(-c5ccccc5)c4c3=O)C[C@@H]21` (relative stereo) [Example 6, hydrochloride], the Kb is 47.9 nM. As for `COc1cccc2c1CC[C@H]1CN(CCn3c(=O)[nH]c4sc(-c5ccccc5)cc4c3=O)C[C@@H]21` (relative stereo) [Example 7, 3-[2-(cis-6-Methoxy-2,3,3a,4,5,9b-hexahydro-[1H]-benz[e]isoindol-1-yl)ethyl]-6-phenyl-thieno[2,3-d]pyrimidine-2,4(1H,3H)-dione hydrochloride], the figure is 24 nM.

Take `COc1cccc2c1CC[C@H]1CN(CCn3c(=O)[nH]c4cc(Cl)ccc4c3=O)C[C@@H]21` (relative stereo) [Example 11, hydrochloride]: the Kb was 1.2 nM. As for `COC(=O)c1ccc2c(=O)n(CCN3C[C@@H]4CCc5c(OC)cccc5[C@@H]4C3)c(=O)[nH]c2c1` (relative stereo) [Example 14, hydrochloride], the figure is 0.977 nM. In the case of `COc1cccc2c1CC[C@H]1CN(CCn3c(=O)[nH]c4ccc(F)cc4c3=O)C[C@@H]21` (relative stereo) [Example 15, 3-[2-(cis-6-Methoxy-2,3,3a,4,5,9b-hexahydro-[1H]-benz[e]isoindol-1-yl)ethyl]-6-fluoro-quinazoline-2,4(1H,3H)-dione hydrochloride], the Kb was 5.37 nM. With `COc1cccc2c1CC[C@H]1CN(CCn3c(=O)[nH]c4ccc([N+](=O)[O-])cc4c3=O)C[C@@H]21` (relative stereo) [Example 16, hydrochloride], the Kb is 12.3 nM. As for `COc1ccc2[nH]c(=O)n(CCN3C[C@@H]4CCc5c(OC)cccc5[C@@H]4C3)c(=O)c2c1` (relative stereo) [Example 17, hydrochloride], the figure is 1.15 nM; as for `COc1cccc2c1CC[C@H]1CN(CCn3c(=O)[nH]c4c(OC)c(OC)c(OC)cc4c3=O)C[C@@H]21` (relative stereo) [Example 18, 3-[2-(cis-6-Methoxy-2,3,3a,4,5,9b-hexahydro-[1H]-benz[e]isoindol-1-yl)ethyl]-6,7,8-trimethoxy-quinazoline-2,4(1H,3H)-dione hydrochloride], 4.17 nM; as for `COc1cccc2c1CC[C@H]1CN(CCn3c(=O)[nH]c4c(C)cccc4c3=O)C[C@@H]21` (relative stereo) [Example 19, hydrochloride], 5.01 nM. As for `COc1cccc2c1CC[C@H]1CN(CCn3c(=O)[nH]c4c(C)cc(C)cc4c3=O)C[C@@H]21` (relative stereo) [Example 20, hydrochloride], the figure is 1.48 nM; as for `COc1cccc2c1CC[C@H]1CN(CCn3c(=O)[nH]c4ncccc4c3=O)C[C@@H]21` (relative stereo) [Example 21, 3-[2-(cis-6-Methoxy-2,3 3a,4,5,9b-hexahydro-[1H]-benz[e]isoindol-1-yl)ethyl]-pyrido[2,3-d]pyrimidine-2,4(1H,3H)-dione hydrochloride], 13.2 nM.

`COc1cccc2c1CC[C@H]1CN(CCn3c(=O)[nH]c4cccnc4c3=O)C[C@@H]21` (relative stereo) [Example 22, hydrochloride]: the Kb was 1.51 nM. As for `COc1cccc2c1CC[C@H]1CN(CCn3c(=O)[nH]c4cccc(Cl)c4c3=O)C[C@@H]21` (relative stereo) [Example 23, hydrochloride], the figure is 4.79 nM; as for `COc1cccc2c1CC[C@H]1CN(CCn3c(=O)[nH]c4cnccc4c3=O)C[C@@H]21` (relative stereo) [Example 24, dihydrochloride], 1.29 nM. As for `COc1cccc2c1CC[C@H]1CN(CCn3c(=O)[nH]c4cc(F)ccc4c3=O)C[C@@H]21` (relative stereo) [Example 25, 3-[2-(cis-6-Methoxy-2,3,3a,4,5,9b-hexahydro-[1H]-benz[e]isoindol-1-yl)ethyl]-7-fluoro-quinazoline-2,4(1H,3H)-dione hydrochloride], the figure is 0.676 nM; as for `COc1cccc2c1CC[C@H]1CN(CCn3c(=O)c4ccccc4n(C)c3=O)C[C@@H]21` (relative stereo) [Example 26, hydrochloride], 0.589 nM. Regarding `COc1cccc2c1CC[C@H]1CN(CCn3c(=O)[nH]c4ccncc4c3=O)C[C@@H]21` (relative stereo) [Example 27, dihydrochloride], the Kb was 2.34 nM. As for `COc1cccc2c1CC[C@H]1CN(CCn3c(=O)[nH]c4c(cnn4C)c3=O)C[C@@H]21` (relative stereo) [Example 28, hydrochloride], the figure is 4.79 nM; as for `COc1cccc2c1CC[C@H]1CN(CCn3c(=O)[nH]c4sc(C)cc4c3=O)C[C@@H]21` (relative stereo) [Example 29, hydrochloride], 1.23 nM. As to `COc1cccc2c1CC[C@H]1CN(CCn3c(=O)[nH]c4[nH]ccc4c3=O)C[C@@H]21` (relative stereo) [Example 30], the Kb was 1.15 nM. Consider `COc1cccc2c1CC[C@H]1CN(CCn3c(=O)[nH]c4cc(-c5ccccc5)sc4c3=O)C[C@@H]21` (relative stereo) [Example 32, hydrochloride], for which the Kb was 33.9 nM.

For `COc1cccc2c1CC[C@H]1CN(CCn3cnc4ccccc4c3=O)C[C@@H]21` (relative stereo) [Example 34, dihydrochloride], the Kb is 1.05 nM. As for `O=c1[nH]c2sccc2c(=O)n1CCN1C[C@@H]2CCc3c(O)cccc3[C@@H]2C1` (relative stereo) [Example 35, hydrobromide], the figure is 87.1 nM. As for `COc1cccc2c1CC[C@H]1CN(CCn3c(=O)[nH]c4cc5c(cc4c3=O)OCO5)C[C@@H]21` [Example 37, hydrochloride], the figure is 0.24 nM; as for `COc1cccc2c1CC[C@H]1CN(CCn3c(=O)[nH]c4cc5c(cc4c3=O)OCCO5)C[C@@H]21` [Example 38, hydrochloride], 0.229 nM; as for `COc1cccc2c1CC[C@H]1CN(CCN3Cc4ccccc4NC3=O)C[C@@H]21` [Example 44, hydrochloride], 5.37 nM. As for `COc1cccc2c1CC[C@H]1CN(CCn3c(=O)[nH]c4cc(C(N)=O)ccc4c3=O)C[C@@H]21` [Example 46, hydrochloride], the figure is 0.575 nM; as for `COc1cccc2c1CC[C@H]1CN(CCn3c(=O)[nH]c4cc(C(=O)N(C)C)ccc4c3=O)C[C@@H]21` [Example 47, 3-[2-((3aR ,9bR)-cis-6-Methoxy-2,3,3a,4,5,9b-hexahydro-[1H]-benz[e]isoindol-1-yl)ethyl]-7-(N,N'-dimethyl)carbamylguinazoline-2,4(1H,3H)-dione hydrochloride], 1.62 nM. As for `COc1cccc2c1CC[C@H]1CN(CCn3c(=O)[nH]c4c(Cl)c(OC)c(Cl)cc4c3=O)C[C@@H]21` [Example 48, hydrochloride], the Kb is 6.46 nM.

With `COc1cc2c(=O)n(CCN3C[C@@H]4CCc5c(OC)cccc5[C@@H]4C3)c(=O)[nH]c2cc1Cl` [Example 49, hydrochloride], the Kb was 12 nM.

Turning to `COc1ccc2c(=O)n(CCN3C[C@@H]4CCc5c(OC)cccc5[C@@H]4C3)c(=O)n(C)c2c1` [Example 50, hydrochloride], the Kb was 0.631 nM. As for `COc1cc2c(cc1Cl)c(=O)n(CCN1C[C@@H]3CCc4c(OC)cccc4[C@@H]3C1)c(=O)n2C` [Example 51, hydrochloride], the figure is 14.1 nM. On to `COc1cccc2c1CC[C@H]1CN(CCn3c(=O)[nH]c4ccc5c(c4c3=O)OCO5)C[C@@H]21` [Example 53, hydrochloride], for which the Kb is 1.95 nM.

Regarding `COc1cccc2c1CC[C@H]1CN(CCn3c(=O)[nH]c4c5c(ccc4c3=O)OCO5)C[C@@H]21` [Example 54, hydrochloride], the Kb is 0.891 nM. As for `COc1cccc2c1CC[C@H]1CN(CCn3c(=O)oc4cc5c(cc4c3=O)OCO5)C[C@@H]21` [Example 55, hydrochloride], the figure is 4.9 nM; as for `COc1cccc2c1CC[C@H]1CN(CCn3cnc4c(C)c(C)ccc4c3=O)C[C@@H]21` [Example 57, dihydrochloride], 7.24 nM.

Turning to `COc1cccc2c1CC[C@H]1CN(CCn3cnc4c(OC)c(OC)ccc4c3=O)C[C@@H]21` [Example 58, dihydrochloride], the Kb was 1.26 nM. Consider `COC(=O)c1cc2c(=O)n(CCN3C[C@@H]4CCc5c(OC)cccc5[C@@H]4C3)c(=O)[nH]c2s1` [Example 59, hydrochloride], for which the Kb is 3.31 nM.

For `COC(=O)c1cc2[nH]c(=O)n(CCN3C[C@@H]4CCc5c(OC)cccc5[C@@H]4C3)c(=O)c2s1` [Example 60, hydrochloride], the Kb was 0.708 nM. Turning to `CCOC(=O)c1c[nH]c2[nH]c(=O)n(CCN3C[C@@H]4CCc5c(OC)cccc5[C@@H]4C3)c(=O)c12` [Example 61, hydrochloride], the Kb was 2.29 nM. As for `COc1cccc2c1CC[C@H]1CN(CCn3c(=O)[nH]c4c(-c5ccccc5)c(OC)sc4c3=O)C[C@@H]21` [Example 62, hydrochloride], the figure is 2.57 nM. Take `CCc1c(OC)sc2c(=O)n(CCN3C[C@@H]4CCc5c(OC)cccc5[C@@H]4C3)c(=O)[nH]c12` [Example 63, hydrochloride]: the Kb was 1.35 nM. Take `COc1cccc2c1CC[C@H]1CN(CCn3c(=O)[nH]c4c(C)c(OC)sc4c3=O)C[C@@H]21` [Example 64, 3-[2-((3aR,9bR)-cis-6-Methoxy-2,3,3a,4,5,9b-hexahydro-[1H]-benz[e]isoindol-1-yl)ethyl]-6-methoxy-7-methylthieno [3,2-d]primidine-2,4(1H,3H)-dione hydrochloride]: the Kb was 1.55 nM.

For the origin of these results see US5792767A, “Bicyclic substituted hexahydrobenz [e] isoindole alpha-1 adrenergic antagonists” (priority 1995, dated 1998).
